Test results: patent US20080200442A1, “Compositions and Methods for Treating, Reducing, Ameliorating, or Preventing Infections of the Ear or Upper Respiratory Tract” (priority 2007, published 2008)
≈ marks a conversion by molar mass, not a printed value. Read-outs that look alike come from different tables or passages of the source.

Key:
Type in all cases: cell-based
[1] = tested on: Propionibacterium acnes (ATCC 6919); test: In vitro anti-bacterial activity (MIC90), anaerobic reference bacteria; conditions: Cutibacterium acnes, ATCC6919
[2] = tested on: Staphylococcus aureus (FDA 209P); test: In vitro anti-bacterial activity (MIC90), Gram-positive reference strains; conditions: FDA209P
Method: (§1) Anti-bacterial activity of the compound having Formula III was tested against several Gram-negative reference bacteria strains and compared to the anti-bacterial activity of three commercially available antibiotics (nadifloxacin, ofloxacin, and sparfloxacin). The results are shown in Table 2 as MIC90 values (minimum concentration of the active compound required to inhibit ninety percent of the growth of a specified pathogen, in μg/ml). Anti-bacterial activity of the compound having Formula III was tested against several Gram-positive reference bacteria strains and compared to the anti-bacterial activity of three commercially available antibiotics (nadifloxacin, ofloxacin, and sparfloxacin).

[3] = tested on: Streptococcus pyogenes (IID 698); test: as above; conditions: IID698
Method: as §1

[4] = tested on: Streptococcus faecalis (ATCC 29212); test: as above; conditions: Enterococcus faecalis, ATCC29212
Method: as §1

[5] = tested on: Streptococcus faecalis (IFO 12964); test: as above; conditions: Enterococcus faecalis, IFO12964
Method: as §1

[6] = tested on: Streptococcus pyogenes (Cook); test: as above
Method: as §1

[7] = tested on: Bacillis subtilis (ATCC 6633); test: as above
Method: as §1

[8] = tested on: Streptococcus pneumoniae (IID 553); test: as above; conditions: IID553
Method: as §1

[9] = tested on: Sarcina lutea (ATCC 9341); test: as above; conditions: Micrococcus luteus, ATCC9341
Method: as §1

[10] = tested on: Streptococcus pneniae (IID 554); test: as above; conditions: IID554
Method: as §1

[11] = tested on: Staphylococcus epidermidis (ATCC 12228); test: as above; conditions: ATCC12228
Method: as §1

[12] = tested on: Staphylococcus aureus (Smith); test: as above
Method: as §1

[13] = tested on: Staphylococcus aureus (ATCC 25933); test: as above; conditions: ATCC25933
Method: as §1

[14] = tested on: Gentamycin-resistant Pseudomonas aeruginosa; test: In vitro anti-bacterial activity (MIC90), ophthalmologic clinical bacteria isolates
[15] = tested on: Peptostreptococcus micros (GIFU 7824); test: In vitro anti-bacterial activity (MIC90), anaerobic reference bacteria; conditions: Parvimonas micra
Corynebacterium species = test: In vitro anti-bacterial activity (MIC90), ophthalmologic clinical bacteria isolates; conditions: Gram-positive
Haemophilus influenzae = test: as above; conditions: Gram-negative
Pseudomonas aeruginosa = test: as above; conditions: Gram-negative
Moraxella species = test: as above; conditions: Gram-negative
[16] = tested on: Clostridium perfringens (KZ 210); test: microbe, parasite or virus in culture
[17] = tested on: Salmonella typhimurium (TD); test: In vitro anti-bacterial activity (MIC90), Gram-negative reference strains
Method: Anti-bacterial activity of the compound having Formula III was tested against several Gram-negative reference bacteria strains and compared to the anti-bacterial activity of three commercially available antibiotics (nadifloxacin, ofloxacin, and sparfloxacin).

[18] = tested on: Bacteroides vulgatus (GAI 0673); test: In vitro anti-bacterial activity (MIC90), anaerobic reference bacteria; conditions: Phocaeicola vulgatus
Streptococcus pneumoniae = test: In vitro anti-bacterial activity (MIC90), ophthalmologic clinical bacteria isolates; conditions: Gram-positive
[19] = tested on: Bacteroides fragillis (GAI 0675); test: In vitro anti-bacterial activity (MIC90), anaerobic reference bacteria
[20] = tested on: Gentamycin-resistant Staphylococcus aureus; test: In vitro anti-bacterial activity (MIC90), ophthalmologic clinical bacteria isolates
[21] = tested on: Ofloxacin-resistant Staphylococcus aureus; test: as above
[22] = tested on: Propionibacterium acnes (ATCC 11828); test: In vitro anti-bacterial activity (MIC90), anaerobic reference bacteria; conditions: Cutibacterium acnes, ATCC11828
[23] = tested on: Staphylococcus aureus (ATCC 33593); test: In vitro anti-bacterial activity (MIC90), methicillin-resistant Staphylococcus aureus isolates; conditions: ATCC33593; methicillin-resistant Staphylococcus aureus (ATCC 33593)
Method: (§2) Anti-bacterial activity of the compound having Formula III was tested against several Gram-negative reference bacteria strains and compared to the anti-bacterial activity of three commercially available antibiotics (nadifloxacin, ofloxacin, and sparfloxacin). The results are shown in Table 2 as MIC90 values (minimum concentration of the active compound required to inhibit ninety percent of the growth of a specified pathogen, in μg/ml).
(§3) Anti-bacterial activity of the compound having Formula III was tested against some methicillin-resistant Staphylococcus aureus bacteria strains and compared to the anti-bacterial activity of three commercially available antibiotics (nadifloxacin, ofloxacin, and sparfloxacin).

[24] = tested on: Staphylococcus aureus (No. 421); test: as above; conditions: methicillin-resistant Staphylococcus aureus (No. 421)
Method: as §2, §3

[25] = tested on: Staphylococcus aureus (No. 419); test: as above; conditions: methicillin-resistant Staphylococcus aureus (No. 419)
Method: as §2, §3

[26] = tested on: Staphylococcus aureus (ATCC 33592); test: as above; conditions: ATCC33592; methicillin-resistant Staphylococcus aureus (ATCC 33592)
Method: as §2, §3

[27] = tested on: Staphylococcus aureus (No. 415); test: as above; conditions: methicillin-resistant Staphylococcus aureus (No. 415)
Method: as §2, §3

[28] = tested on: Staphylococcus aureus (No. 420); test: as above; conditions: methicillin-resistant Staphylococcus aureus (No. 420)
Method: as §2, §3

[29] = tested on: Staphylococcus aureus (ATCC 33591); test: as above; conditions: ATCC33591; methicillin-resistant Staphylococcus aureus (ATCC 33591)
Method: as §2, §3

[30] = tested on: Staphylococcus aureus (No. 395); test: as above; conditions: methicillin-resistant Staphylococcus aureus (No. 395)
Method: as §2, §3

[31] = tested on: Coagulase-negative Staphylococcus; test: In vitro anti-bacterial activity (MIC90), ophthalmologic clinical bacteria isolates; conditions: Gram-positive
[32] = tested on: Veillonella parvula (GAI 5602); test: In vitro anti-bacterial activity (MIC90), anaerobic reference bacteria
[33] = tested on: Peptostreptococcus magnum (GAI 0664); test: as above
[34] = tested on: Propionibacterium acnes (GAI 5419); test: as above; conditions: Cutibacterium acnes
Propionibacterium acnes = test: In vitro anti-bacterial activity (MIC90), ophthalmologic clinical bacteria isolates; conditions: Cutibacterium acnes, Gram-positive
Staphylococcus aureus = test: as above; conditions: Gram-positive
[35] = tested on: Bacteroides thetaiotaomicron (GAI 0659); test: In vitro anti-bacterial activity (MIC90), anaerobic reference bacteria
[36] = tested on: Penicillin-resistant Streptococcus pneumoniae; test: In vitro anti-bacterial activity (MIC90), ophthalmologic clinical bacteria isolates

NC1CCCCN(c2c(F)cc3c(=O)c(C(=O)O)cn(C4CC4)c3c2Cl)C1 (centres unmarked) [Compound Having Formula III] showed an MIC90 [1] of 0.2 µg/mL, an MIC90 [2] of 0.012 µg/mL and an MIC90 [3] of 0.1 µg/mL. The MIC90 [4] was 0.2 µg/mL, the MIC90 [5] was 0.1 µg/mL and the MIC90 [6] was 0.1 µg/mL. The MIC90 [7] was 0.012 µg/mL, the MIC90 [8] was 0.1 µg/mL and the MIC90 [9] was 0.1 µg/mL. For the same molecule, the MIC90 [10] was 0.2 µg/mL, the MIC90 [11] was 0.05 µg/mL and the MIC90 [12] was 0.006 µg/mL. The MIC90 [13] was 0.05 µg/mL, the MIC90 [14] was 32 µg/mL and the MIC90 [15] was 0.2 µg/mL. The MIC90 (Corynebacterium species) was 2 µg/mL, the MIC90 (Haemophilus influenzae) was at most 0.06 µg/mL and the MIC90 (Pseudomonas aeruginosa) was 4 µg/mL. The MIC90 (Moraxella species) was 0.13 µg/mL, the MIC90 [16] was 0.2 µg/mL and the MIC90 [17] was 0.05 mμg/mL. It also gave an MIC90 [18] of 0.1 µg/mL, an MIC90 (Streptococcus pneumoniae) of 0.13 µg/mL and an MIC90 [19] of 0.1 µg/mL. For the same molecule, the MIC90 [20] was 4 µg/mL, the MIC90 [21] was 8 µg/mL and the MIC90 [22] was 0.39 µg/mL. The MIC90 [23] was 0.012 µg/mL, the MIC90 [24] was 0.2 µg/mL and the MIC90 [25] was 0.1 µg/mL. For the same molecule, the MIC90 [26] was 0.05 µg/mL, the MIC90 [27] was 0.05 µg/mL and the MIC90 [28] was 0.1 µg/mL. For the same molecule, the MIC90 [29] was 0.012 µg/mL, the MIC90 [30] was 0.006 µg/mL and the MIC90 [31] was 0.5 µg/mL. For the same molecule, the MIC90 [32] was 0.1 µg/mL, the MIC90 [33] was 0.05 µg/mL and the MIC90 [34] was 0.2 µg/mL. The MIC90 (Propionibacterium acnes) was 0.25 µg/mL, the MIC90 (Staphylococcus aureus) was 1 µg/mL and the MIC90 ([35]; anaerobic, Bacteroides thetaiotaomicron (GAI 0659), read-out: MIC90) was 0.2 µg/mL. It also gave an MIC90 [36] of 0.13 µg/mL.
In the case of CC1CCc2c(N3CCC(O)CC3)c(F)cc3c(=O)c(C(=O)O)cn1c23 (centres unmarked) [Nadifloxacin], the MIC90 [1] is reported as 0.2 µg/mL (≈ 0.555 µM), the MIC90 [2] is reported as 0.024 µg/mL (≈ 0.0666 µM) and the MIC90 [3] is reported as 0.1 µg/mL (≈ 0.277 µM). For the same molecule, the MIC90 [4] was 0.78 µg/mL (≈ 2.16 µM), the MIC90 [5] was 0.78 µg/mL (≈ 2.16 µM) and the MIC90 [6] was 0.78 µg/mL (≈ 2.16 µM). It also gave an MIC90 [7] of 0.006 µg/mL (≈ 0.0166 µM), an MIC90 [8] of 0.78 µg/mL (≈ 2.16 µM) and an MIC90 [9] of 0.39 µg/mL (≈ 1.08 µM). It also gave an MIC90 [10] of 0.78 µg/mL (≈ 2.16 µM), an MIC90 [11] of 0.1 µg/mL (≈ 0.277 µM) and an MIC90 [12] of 0.024 µg/mL (≈ 0.0666 µM). It also gave an MIC90 [13] of 0.05 µg/mL (≈ 0.139 µM), an MIC90 [15] of 0.39 µg/mL (≈ 1.08 µM) and an MIC90 [16] of 0.2 µg/mL (≈ 0.555 µM). The MIC90 [17] was 0.2 mμg/mL, the MIC90 [18] was 0.78 µg/mL (≈ 2.16 µM) and the MIC90 [19] was 1.56 µg/mL (≈ 4.33 µM). It also gave an MIC90 [22] of 0.78 µg/mL (≈ 2.16 µM), an MIC90 [23] of 0.024 µg/mL (≈ 0.0666 µM) and an MIC90 [24] of 0.78 µg/mL (≈ 2.16 µM). For the same molecule, the MIC90 [25] was 0.39 µg/mL (≈ 1.08 µM), the MIC90 [26] was 0.05 µg/mL (≈ 0.139 µM) and the MIC90 [27] was 0.1 µg/mL (≈ 0.277 µM). For the same molecule, the MIC90 [28] was 0.78 µg/mL (≈ 2.16 µM), the MIC90 [29] was 0.006 µg/mL (≈ 0.0166 µM) and the MIC90 [30] was 0.024 µg/mL (≈ 0.0666 µM). For the same molecule, the MIC90 [32] was 0.78 µg/mL (≈ 2.16 µM), the MIC90 [33] was 0.2 µg/mL (≈ 0.555 µM) and the MIC90 [34] was 0.2 µg/mL (≈ 0.555 µM). For the same molecule, the MIC90 ([35]; Bacteroides thetaiotaomicron) was 1.56 µg/mL (≈ 4.33 µM).
